pIC50: −log10 of the molar value. Like-named read-outs stand apart in the source and are kept apart here.
How the values were obtained:
[1] = molecular target: T1, dopamine receptors (striatal membranes) (Rattus norvegicus, UniProt P61169); assay: [^3 H]Haloperidol binding assay; parameters: species or system rat (Long-Evans hooded rats); details: 0.6 nM [^3 H]-haloperidol, pH 7.6, 25° C., 40 minutes
T1 construct: striatal membranes prepared from Long-Evans hooded rats; from tissue; host or cells: corpus striatum of Long-Evans hooded rats (membrane homogenate)
Description: The antipsychotic activity of representative compounds of the invention was also established by the [^3 H]haloperidol binding assay method which is described in Mol. Pharmacol. 12, 800 (1976) and reports excellent correlation between the amount of binding and clinical potency.
[^3 H]Haloperidol Binding Assay. The relative affinities of compounds for dopamine receptors were evaluated on the basis of their ability to displace [^3 H]-haloperidol from striatal membranes prepared from Long-Evans hooded rats. Rats were decapitated; the brains were removed, and the corpus striata were dissected. The corpus striata were homogenized in 40 volumes of […] Tris buffer (pH 7.6) and centrifuged. Pellets were rehomogenized in 50 volumes of the same buffer and used for the binding assay. Incubations were carried out in 10 ml of […] Tris-HCl buffer (pH 7.6) containing 2 mg/ml of original wet tissue weight of homogenate, 100 μl of test agent or solvent, and 0.6 nM of [^3 H]-haloperidol. Nonspecific binding was determined in the presence of 0.1 μM (+)-butaclamol. Samples were incubated in reciprocating water bath at 25° C. for 40 minutes. Incubation was terminated by rapid filtration under reduced pressure through glass fiber filters (Whatman GF/B). The filters were rinsed three times with 10 ml of Tris-HCl buffer. The filters were placed in 10 ml of scintillation cocktail (Beckman Ready-Solv HP) and shaken for one hour. Radioactivity retained on the filter was determined by liquid scintillation spectrophotometry. IC50 s when determined were calculated from a nonlinear computer curve, fit on the data from […], each done in triplicate.

[2] = test system: spontaneous locomotion (Swiss-Webster male mice); assay: Inhibition of locomotor activity-screen fall-off test; type: in vivo, mouse (Swiss-Webster male mice); details: Mus musculus, ip, 1 h, intraperitoneal, one hour prior to testing, locomotion accumulated for one hour
Description: ANIMALS: Nine unfasted Swiss-Webster male mice (Buckberg Labs) weighing 20-30 g are equally divided into three groups for each drug dose to be tested. That is, data for each dose level was generated by three separate groups of three mice each.
DRUGS: A minimum of three dose levels (10, 30, and 100 mg/kg) are tested for each drug. Treatments are administered intraperitoneally one hour prior to testing. All dosages are calculated as parent compound. Compounds are dissolved or suspended in 0.2% methocel. Control animals are injected with methocel.
TESTING: A two-part testing procedure is started one hour postinjection. First, the screen test is performed (see Pharmac Biochem Behav 6, 351-353, 1977). Briefly, this test consists of placing mice on individual wire screens which are then rotated 180° at the start of a 60-second observation period. The number of mice falling off the inverted screen is recorded.
Immediately following the screen test, the final phase of testing is initiated by placing each group of three mice in one actophotometer (Life Sciences, 22, 1067-1076, 1978). The actophotometer consists of a cylindrical chamber whose center is occupied by another cylinder which contains the illumination for six photocells located on the perimeter of the chamber. Six light-beam interruptions equal one count. Locomotor activity is recorded by computer at ten-minute intervals for 60 minutes.
DATA: The data obtained from the screen test are expressed as percent of mice falling off the screen. Data derived from locomotor activity of drug-treated mice are compared to the activity of vehicle-treated animals and are expressed as percent inhibition of spontaneous locomotion. All percentages reported for inhibition of locomotion are based upon data accumulated for one hour. Both phases of testing are graded: A=60-100%; C=31-59%; and N=0-30%. An overall dose rating is obtained by the following criteria.
All other combinations = N
Utilizing this procedure, an overall dose rating of A was obtained for the noted compounds at the indicated dose, ED50 s, as reported in Table 1.

[3] = ^3 H-Haloperidol Binding IC50, rat striatal membranes
[4] = rat striatal membranes, read-out: ^3 H-Haloperidol Binding IC50

T1 sequence (P61169 whole entry): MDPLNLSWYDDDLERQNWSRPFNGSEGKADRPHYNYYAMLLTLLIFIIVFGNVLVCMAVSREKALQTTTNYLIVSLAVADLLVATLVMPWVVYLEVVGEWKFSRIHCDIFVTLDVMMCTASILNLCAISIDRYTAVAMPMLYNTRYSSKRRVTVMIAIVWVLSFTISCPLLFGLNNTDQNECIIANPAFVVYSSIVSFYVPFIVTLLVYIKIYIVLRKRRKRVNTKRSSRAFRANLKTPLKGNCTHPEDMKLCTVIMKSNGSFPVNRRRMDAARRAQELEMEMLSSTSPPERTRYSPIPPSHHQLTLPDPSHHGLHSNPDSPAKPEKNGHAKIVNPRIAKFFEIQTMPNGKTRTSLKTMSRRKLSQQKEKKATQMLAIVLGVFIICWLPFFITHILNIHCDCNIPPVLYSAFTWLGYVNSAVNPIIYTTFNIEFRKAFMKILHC

pIC50 [1, 4] | SMILES | pIC50 [1, 3] | ED50 [2] [mg/kg]
– | C1=C(c2ccccc2)CCN(CCCOc2cccc3cnccc23)C1 [Example 2O, 5-[3-(3,6-dihydro-4-phenyl-1(2H)-pyridinyl)propoxy]isoquinoline] | 7.48 | 0.18
7.05 | c1ccc(N2CCN(CCCOc3ccc4ncccc4c3)CC2)cc1 [Example 2K, 6-[3-(4-phenyl-1-piperazinyl)propoxy]-quinoline] | – | 0.5
6.37 | O=C1NCCc2c(OCCCN3CCN(c4ccccn4)CC3)cccc21 [Example 2X] | – | 4.4
7.30 | c1ccc(N2CCN(CCCOc3ccc4cccnc4c3)CC2)cc1 [Example 2U, 7-[3-(4-phenyl-1-piperazinyl)propoxy]quinoline] | – | 0.1
7.00 | O=C1COc2cc(OCCCN3CCN(c4ccccc4)CC3)ccc21 [Example 2B, 6-[3-(4-phenyl-1-piperazinyl)propoxy]-3-(2H)-benzofuranone] | – | 3.7
– | O=C1COc2cc(OCCCN3CC=C(c4ccccc4)CC3)ccc21 [Example 2C] | > 7.00 | 3.5
6.80 | O=C1Cc2cc(OCCCN3CCN(c4ccccc4)CC3)ccc2N1 [Example 4, 1,3-dihydro-5-[3-(4-phenyl-1-piperazinyl)propoxy]-2H-indole-2-one] | – | 0.4
– | C1=C(c2ccccc2)CCN(CCCCOc2ccc3[nH]ccc3c2)C1 [Example 2H, 5-[4-(3,6-dihydro-4-phenyl-1(2H)-pyridinyl)butoxy]-1H-indole] | 8.00 | 0.5
7.15 | c1ccc(N2CCN(CCCOc3ccc4c(c3)OCCC4)CC2)cc1 [Example 2D, 1-[3-[(3,4-dihydro-2H-1-benzopyran-7-yl)oxy]propyl]-4-phenylpiperazine] | – | 2.7
6.00 | O=C1COc2ccc(OCCCN3CCN(c4ncccn4)CC3)cc2N1 [Example 2E, 6-[3-[4-(2-pyrimidinyl)-1-piperazinyl]propoxy]-2H-1,4-benzoxazine-3(4H)-one] | – | 1
– | C1=C(c2ccccc2)CCN(CCCOc2cccc3[nH]ccc23)C1 [Example 2F, 4-[3-(3,6-dihydro-4-phenyl-1(2H)-pyridinyl)propoxy]-1H-indole] | 7.40 | 2.5
6.69 | c1ccc(N2CCN(CCCOc3cccc4cnccc34)CC2)cc1 [Example 2Q, 5-[3-(4-phenyl-1-piperazinyl)propoxy]isoquinoline] | – | 0.29
– | CC1(C)CC(=O)c2ccc(OCCCN3CC=C(c4ccccc4)CC3)cc2O1 [Example 2A, 7-[3-[3,6-dihydro-4-phenyl-1(2H)-pyridinyl)propoxy]-2,3-dihydro-2,2-dimethyl-4H-benzopyran-4-one] | > 7.00 | 4.8
6.30 | c1ccc(N2CCN(CCCOc3ccc4ccoc4c3)CC2)cc1 [Example 5, 1-[3-[6-Benzofuranyloxy]propyl]-4-phenylpiperazine] | – | 8.8
– | C1=C(c2ccccc2)CCN(CCCCOc2ccc3ncccc3c2)C1 [Example 2M, 6-[4-(3,6-dihydro-4-phenyl-1(2H)-pyridinyl)butoxy]quinoline] | 7.77 | 1.1
– | C1=C(c2ccccc2)CCN(CCCOc2ccc3cc[nH]c3c2)C1 [Example 2I, 6-[3-(3,6-dihydro-4-phenyl-1(2H)-pyridinyl)propoxy]-1H-indole] | 7.00 | 2.8
– | C1=C(c2ccccc2)CCN(CCCCOc2cccc3[nH]ccc23)C1 [Example 2G, 4-[4-(3,6-dihydro-4-phenyl-1(2H)-pyridinyl)butoxy]-1H-indole] | 7.30 | 1.4
6.05 | c1cnc(N2CCN(CCCOc3ccc4cccnc4c3)CC2)nc1 [Example 2V, 7-[3-[4-(2-pyrimidinyl)-1-piperazinyl]propoxy]quinoline] | – | 1
6.19 | Oc1nccc2c(OCCCN3CCN(c4ccccn4)CC3)cccc12 [Example 2W, 5-[3-[4-(2-pyridinyl)-1-piperazinyl]propoxy]-1-isoquinolinol] | – | 6.1
6.70 | c1cnc(N2CCN(CCCOc3ccc4cc[nH]c4c3)CC2)nc1 [Example 2J, 6-[3-[4-(2-pyrimidinyl)-1-piperazinyl]propoxy]-1H-indole] | – | 3.2
6.52 | CC1(C)CC(=O)c2ccc(OCCCN3CCN(c4ccccc4)CC3)cc2O1 [Example 1, 2,3-Dihydro-2,2-dimethyl-7-(3-(4-phenyl)-1-piperizinyl)propoxy-4H-benzopyran-4-one] | – | 5.9
6.02 | c1cnc(N2CCN(CCCOc3cccc4cnccc34)CC2)nc1 [Example 2R, 5-[3-[4-(2-pyrimidinyl)-1-piperazinyl]propoxy]isoquinoline] | – | 19.5
6.64 | c1ccc(N2CCN(CCCOc3ccc4cccnc4c3)CC2)nc1 [Example 2T, 7-[3-[4-(2-pyridinyl)-1-piperazinyl]propoxy]quinoline] | – | 0.17
– | c1ccc(N2CCN(CCCOc3ccc4[nH]cnc4c3)CC2)cc1 [Example 3, 5-[3-(4-Phenylpiperazinyl)propyloxy]-1H-benzimidazole] | 6.92 | 4.9
6.19 | c1ccc(N2CCN(CCCOc3cccc4cnccc34)CC2)nc1 [Example 2P, 5-[3-[4-(2-pyridinyl)-1-piperazinyl]propoxy]isoquinoline] | – | 3

SMILES | pIC50 [1, 4] | pIC50 [1, 3] | ED50 [2] [mg/kg]
c1cnc(N2CCN(CCCCOc3cccc4ncccc34)CC2)nc1 [Example 2S, 5-[4-[4-(2-pyrimidinyl)-1-piperazinyl]butoxy]quinoline] | 6.74 | – | 7.7
c1cnc(N2CCN(CCCCOc3ccc4ncccc4c3)CC2)nc1 [Example 2L, 6-[4-[4-(2-pyrimidinyl)-1-piperazinyl]butoxy]quinoline] | 7.30 | – | 0.9
c1cnc(N2CCN(CCCCOc3cccc4ncccc34)CC2)nc1 [Example 2N, 5-[4-[4-(2-pyrimidinyl)-1-piperazinyl]butoxy]quinoline] | 6.74 | – | –
